Laboratory results published in US12582706B2, “Tolerogenic antigen presenting cells” (Cell4Cure AB, priority 2019, dated 2026).

What was measured:
CD4^+ T cells [1] = assay: Capacity of DCs to induce T cell proliferation in allogeneic MLR (3H-thymidine); format: cell-based, human; conditions: for induction of T cell proliferation (CPM): Example 13, FIG. 13(G), compared to control DCs
Method: (§1) CD14^+ monocytes were cultured at 1.25×10^6 cells/mi for 7 days in GMP DC Medium (CellGenix, Freiburg, Germany) containing HEPES, GlutaMAX and Penicillin-Streptomycin solution (Thermo Fisher, Waltham, MA) in the presence of granulocyte-macrophage colony-stimulating factor (GM-CSF; 100 ng/ml; PeproTech, London, UK) and interleukin-4 (IL-4; 100 ng/ml; PeproTech). Cells were replenished on day 3 with fresh medium and cytokines. Control DCs were differentiated in GM-CSF and IL-4 without addition of any further compounds and optionally further were treated with lipopolysaccharide (LPS; 0.5 ug/ml; Sigma-Aldrich, Saint Louise, MO) or a pro-inflammatory cytokine cocktail consisting of TNFalpha (10 ng/ml; PeproTech), IL-1 beta (10 ng/ml; PeproTech), and prostaglandin E2 (PGE2; 1 ug/ml; Sigma) on day 6 to generate stimulated immunogenic DCs. Tolerogenic DCs (tolDCs) were generated by treatment with various tolerogenic compounds: AhR agonist “C1” (C1; 20 nM; IMA-06201; Immunahr A B, Lund, Sweden) on days 0 and 3, TGFbeta1 (10 or 20 ng/ml; PeproTech) on day 3, and retinoic acid (2 uM; Sigma-Aldrich) on day 6. Control tolDC for comparison were established by treatment with Dexamethasone (Dex; 100 nM; Sigma-Aldrich) and Vitamin D3 (VitD3; 100 nM, StemCell Technologies) on day 3. Phenotypic stability of TolDCs was investigated by addition of LPS (0.5 ug/ml) or a pro-inflammatory cytokine cocktail consisting of TNFalpha (10 ng/ml), IL-1beta (10 ng/ml), PGE2 (1 ug/ml), and for Example 24 also IL-6 (10 ng/ml), for the last 24 hours of culture. On day 7, DCs were harvested and washed extensively before phenotyping and functional assays were performed.
In order to analyse the T cell stimulatory capacity of the generated DC populations, allogeneic MLRs were performed. DC/T cell cultures were carried out in complete medium: RPMI-1640 (Thermo Fisher) containing fetal bovine serum (FBS; 10%; Thermo Fisher), HEPES, GlutaMAX and Penicillin-Streptomycin solution. T cells (10^5 cells/well) were cultured with DCs at a T cell: DC ratio of 10:1 for 5-7 days. Proliferation was determined by incorporation of ^3H-thymidine for the last 18 hours of culture. For determination of CD4^+CD49b^+LAG3^+ Tr1 cells, cells were phenotyped as described below. For determination of CD25^hiFoxp3^+ Treg induction, the T cells from the MLR cultures were rested for additionally 7 days in complete medium containing IL-2 (20 IU/ml; PeproTech) and then subjected to phenotyping as described below.
Control DCs were differentiated from CD14^+ monocytes by culturing in GM-CSF and IL-4 for 7 days. Control DCs were either unstimulated or stimulated with LPS which was added on day 6 to generate immunogenic control DCs. […] TolDCs for comparison were established by treatment with Dex at 100 nM and VitD3 at 100 nM on day 3. On day 6, some of the DCs were treated with LPS (FIG. 5 (A); black bars) or a pro-inflammatory cytokine cocktail consisting of TNFalpha, IL-1beta and PGE2 (FIG. 5 (B); black bars) to test for phenotypical stability under various conditions. All cells were harvested on day 7 and cocultures with CD4^+ T cells were setup in an MLR setting at a T cell:DC ratio of 10:1. At the end of the 7-day cultures, proliferation of T cells was determined by ^3H-thymidine incorporation.
Various compounds were tested for their capacity to induce a tolerogenic phenotype in DCs. […] AhR agonist C1 (AhR ag) at 10 nM on days 0 and 3, TGFbeta at 10 ng/ml on day 3, and RA at 2 uM on day 6. […]

CD4^+ T cells [2] = assay: Capacity of DCs to induce CD25^hiFoxp3^+ Tregs in time-extended MLR; format: cell-based, human; conditions: Example 13, FIG. 13(H); compared to control DCs
Method: as §1
In order to analyse the T cell stimulatory capacity of the generated DC populations, allogeneic MLRs were performed. DC/T cell cultures were carried out in complete medium: RPMI-1640 (Thermo Fisher) containing fetal bovine serum (FBS; 10%; Thermo Fisher), HEPES, GlutaMAX and Penicillin-Streptomycin solution. […] Proliferation was determined by incorporation of ^3H-thymidine for the last 18 hours of culture. […]

SMILES | induction of T cell proliferation (CPM) (CD4^+ T cells [1]) | effect on the tolerogenic effect of RA (CD4^+ T cells [1]; Example 13, summary) | induction of Tregs (CD4^+CD25^+Foxp3^+) (CD4^+ T cells [2])
CCN(C(=O)c1c(O)c2c(Cl)cccc2n(C)c1=O)c1ccccc1 [AhR agonist, N-ethyl-N-phenyl-5-chloro-1,2-dihydro-4-hydroxy-1-methyl-2-oxo-quinoline-3-carboxamide] | slightly more T cell proliferation | strengthens the tolerogenic effect of RA | slightly more Tregs
CC1=C(/C=C/C(C)=C/C=C/C(C)=C/C(=O)O)C(C)(C)CCC1 [RA, all-trans retinoic acid] | less T cell proliferation |  | more Tregs
